Data taken from patent US9920035B2, “Heterocyclic compounds, medicaments containing said compounds, use thereof and processes for the preparation thereof” (Boehringer Ingelheim International GmbH, priority 2011, dated 2018).

These compounds were tested against T1, epithelial sodium channel (ENaC) (Mus musculus, UniProt Q61180+Q9WU38+Q9WU39) (assay: Ussing chamber: inhibition of amiloride sensitive short circuit current (I_sc) in M-1 cells). Details: Mouse kidney M-1 cells on transwell filters, Ussing chamber at 37° C., compound added to the apical solution.
T1 construct: Mouse kidney M-1 cells were cultivated in DMEM containing 5% FCS and 5 μM dexamethasone; endogenous in cells; host or cells: mouse kidney M-1 cells
T1 sequence (Q61180 1-699): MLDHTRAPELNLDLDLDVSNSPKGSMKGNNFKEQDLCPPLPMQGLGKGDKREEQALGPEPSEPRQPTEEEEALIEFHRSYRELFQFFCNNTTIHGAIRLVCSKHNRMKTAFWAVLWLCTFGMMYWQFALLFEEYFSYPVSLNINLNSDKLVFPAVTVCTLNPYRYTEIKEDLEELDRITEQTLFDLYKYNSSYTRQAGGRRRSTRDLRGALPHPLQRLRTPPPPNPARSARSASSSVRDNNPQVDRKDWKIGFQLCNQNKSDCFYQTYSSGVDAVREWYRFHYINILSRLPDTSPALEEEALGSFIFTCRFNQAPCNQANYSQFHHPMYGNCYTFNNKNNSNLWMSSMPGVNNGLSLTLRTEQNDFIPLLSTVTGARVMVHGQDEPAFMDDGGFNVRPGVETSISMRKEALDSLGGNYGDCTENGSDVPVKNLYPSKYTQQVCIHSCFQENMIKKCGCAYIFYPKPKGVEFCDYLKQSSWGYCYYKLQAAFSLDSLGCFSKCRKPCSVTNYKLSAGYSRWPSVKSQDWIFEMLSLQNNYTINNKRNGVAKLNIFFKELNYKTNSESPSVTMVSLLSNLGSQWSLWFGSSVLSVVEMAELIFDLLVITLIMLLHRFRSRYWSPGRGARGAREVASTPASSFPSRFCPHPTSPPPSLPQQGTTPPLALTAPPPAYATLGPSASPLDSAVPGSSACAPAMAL
T1 sequence (Q9WU38 1-638): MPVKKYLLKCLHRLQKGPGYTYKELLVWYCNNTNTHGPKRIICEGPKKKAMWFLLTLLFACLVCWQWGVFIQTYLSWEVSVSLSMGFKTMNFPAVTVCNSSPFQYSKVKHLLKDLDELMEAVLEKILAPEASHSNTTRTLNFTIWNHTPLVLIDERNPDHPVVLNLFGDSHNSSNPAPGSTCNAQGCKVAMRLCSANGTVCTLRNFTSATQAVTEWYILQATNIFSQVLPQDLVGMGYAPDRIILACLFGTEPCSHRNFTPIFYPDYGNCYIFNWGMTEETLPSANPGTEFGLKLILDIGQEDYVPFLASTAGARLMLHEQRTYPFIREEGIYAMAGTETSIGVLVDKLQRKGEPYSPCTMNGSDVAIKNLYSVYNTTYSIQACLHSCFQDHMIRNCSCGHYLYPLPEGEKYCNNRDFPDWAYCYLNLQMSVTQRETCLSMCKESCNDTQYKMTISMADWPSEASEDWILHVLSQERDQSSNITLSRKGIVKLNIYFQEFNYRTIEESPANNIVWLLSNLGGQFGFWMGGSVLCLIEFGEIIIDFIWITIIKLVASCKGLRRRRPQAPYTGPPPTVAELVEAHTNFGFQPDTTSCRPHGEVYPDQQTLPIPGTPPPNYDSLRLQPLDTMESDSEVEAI
T1 sequence (Q9WU39 1-655): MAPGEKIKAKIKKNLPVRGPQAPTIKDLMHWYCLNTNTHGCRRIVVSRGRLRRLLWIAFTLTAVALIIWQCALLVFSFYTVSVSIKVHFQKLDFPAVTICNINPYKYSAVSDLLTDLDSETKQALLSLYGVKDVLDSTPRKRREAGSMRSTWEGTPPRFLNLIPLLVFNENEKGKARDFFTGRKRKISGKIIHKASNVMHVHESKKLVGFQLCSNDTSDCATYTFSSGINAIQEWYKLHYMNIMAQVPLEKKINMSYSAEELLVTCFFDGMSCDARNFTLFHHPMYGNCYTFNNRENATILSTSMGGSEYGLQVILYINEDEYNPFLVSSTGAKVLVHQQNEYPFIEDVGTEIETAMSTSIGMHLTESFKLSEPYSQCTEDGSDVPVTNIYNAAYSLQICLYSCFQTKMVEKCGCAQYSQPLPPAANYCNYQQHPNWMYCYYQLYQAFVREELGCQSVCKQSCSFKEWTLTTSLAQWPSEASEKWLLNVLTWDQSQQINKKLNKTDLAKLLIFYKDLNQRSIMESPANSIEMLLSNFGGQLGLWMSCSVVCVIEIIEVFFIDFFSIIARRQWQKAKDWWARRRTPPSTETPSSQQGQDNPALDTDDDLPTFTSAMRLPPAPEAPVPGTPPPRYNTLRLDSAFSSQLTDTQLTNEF
Assay type: cell-based
Experimental: Mouse kidney M-1 cells were cultivated in DMEM containing 5% FCS and 5 μM dexamethasone for 10 to 12 days on polyester transwell filters. Filters were inserted into a teflon-coated well-plate which fit into the in-house ussing chamber system. Prior to measurement the medium of M-1 cells was replaced with Caco-2 transport buffer (Invitrogen, Germany). During measurements, the Ussing chamber temperature was kept at 37° C. Short circuit currents (I_sc) were measured in the voltage-clamp mode using an in-house built amplifier (Boehringer Ingelheim, Biberach) with the software package Lab View for data acquisition and analysis. The transepithelial electrical resistance (TEER) was determined by the application of voltage steps of ±5 mV every 5 sec. Compounds were administered at a final concentration of 3 μM or at increasing concentrations (1-3-10 μM) to the apical solution. At the end of each experiment the amiloride sensitive I_SC was measured by adding 3 μM amiloride to the apical compartment. Results are expressed as inhibition in percent of the amiloride effect or as IC50. Results are listed in tables 1 to 5 and further examples listed above.

With `CN1CCN(C(=O)N2CCC(CCc3ccccc3)(CN/C(N)=N/C(=O)c3nc(Cl)c(N)nc3N)CC2)CC1` [Example 1.53] as the compound, how does the IC50 read?
Its IC50 is 14 nM.

How did the IC50 turn out when `COC(=O)c1ccc(CCC2(CNC(N)=NC(=O)c3nc(Cl)c(N)nc3N)CCNCC2)cc1` [Example 2.1] was run?
The IC50 was 394 nM.

`NCCC(=O)N1CCC(CCc2ccccc2)(CNC(N)=NC(=O)c2nc(Cl)c(N)nc2N)CC1` [Example 2.2] was tested. Which IC50 did it give?
Its IC50 is 19 nM.

For `NCCCCC(=O)N1CCC(CCc2ccccc2)(CNC(N)=NC(=O)c2nc(Cl)c(N)nc2N)CC1` [Example 2.3], which IC50 is on record?
Its IC50 is 23 nM.

How did the IC50 turn out when `NCCCN1CCC(CCc2ccccc2)(CNC(N)=NC(=O)c2nc(Cl)c(N)nc2N)CC1` [Example 2.5] was run?
Its IC50 is 65 nM.

For `NCCCNC(=O)N1CCC(CCc2ccccc2)(CNC(N)=NC(=O)c2nc(Cl)c(N)nc2N)CC1` [Example 2.6], which IC50 is on record?
Its IC50 is 28 nM.

For `NCCNC(=O)N1CCC(CCc2ccccc2)(CNC(N)=NC(=O)c2nc(Cl)c(N)nc2N)CC1` [Example 2.7], which IC50 is on record?
Its IC50 is 16 nM.

Which IC50 does the source give for `NCCCCC(=O)N1CCC(CNC(N)=NC(=O)c2nc(Cl)c(N)nc2N)(Cc2ccccc2)CC1` [Example 2.8] here?
Its IC50 is 61 nM.

With `NCCC(=O)N1CCC(CNC(N)=NC(=O)c2nc(Cl)c(N)nc2N)(Cc2ccccc2)CC1` [Example 2.9] as the compound, how does the IC50 read?
The IC50 was 93 nM.

How did the IC50 turn out when `COc1ccccc1C1(CNC(N)=NC(=O)c2nc(Cl)c(N)nc2N)CCNCC1` [Example 2.10] was run?
Its IC50 is 200 nM.

For `NC(=NC(=O)c1nc(Cl)c(N)nc1N)NCC1(Cc2ccccc2)CCNCC1` [Example 2.11], which IC50 is on record?
The IC50 was 55 nM.

Which IC50 does the source give for `NCCNC(=O)N1CCC(CNC(N)=NC(=O)c2nc(Cl)c(N)nc2N)(Cc2ccccc2)CC1` [Example 2.12] here?
Its IC50 is 17 nM.

For `NCCCNC(=O)N1CCC(CNC(N)=NC(=O)c2nc(Cl)c(N)nc2N)(Cc2ccccc2)CC1` [Example 2.13], which IC50 is on record?
Its IC50 is 25 nM.

For `NCCCN1CCC(CNC(N)=NC(=O)c2nc(Cl)c(N)nc2N)(Cc2ccccc2)CC1` [Example 2.14], which IC50 is on record?
The IC50 was 120 nM.

`NC(=NC(=O)c1nc(Cl)c(N)nc1N)NCC1(CCc2ccccc2)CCN(C(=O)CCC(=O)O)CC1` [Example 3.1] was tested. Which IC50 did it give?
Its IC50 is 40 nM.

With `NC(=NC(=O)c1nc(Cl)c(N)nc1N)NCC1(CCc2ccccc2)CCN(C(=O)NCCC(=O)O)CC1` [Example 3.2] as the compound, how does the IC50 read?
Its IC50 is 149 nM.

How did the IC50 turn out when `NC(=NC(=O)c1nc(Cl)c(N)nc1N)NCC1(CCc2ccccc2)CCN(C(=O)NCC(=O)O)CC1` [Example 3.3] was run?
Its IC50 is 10.1 nM.

`N=C(N)NCCC(=O)N1CCC(CCc2ccccc2)(CNC(N)=NC(=O)c2nc(Cl)c(N)nc2N)CC1` [Example 4.1] was tested. Which IC50 did it give?
Its IC50 is 12 nM.

`N=C(N)NCCCCC(=O)N1CCC(CCc2ccccc2)(CNC(N)=NC(=O)c2nc(Cl)c(N)nc2N)CC1` [Example 4.2] was tested. Which IC50 did it give?
Its IC50 is 18 nM.

How did the IC50 turn out when `C[N+](C)(C)CCCNC(=O)N1CCC(CCc2ccccc2)(CNC(N)=NC(=O)c2nc(Cl)c(N)nc2N)CC1` [Example 5.1] was run?
Its IC50 is 27 nM.

With `COC(=O)c1ccc(CCC2(CNC(N)=NC(=O)c3nc(Cl)c(N)nc3N)CCN(C(=O)NCC[N+](C)(C)C)CC2)cc1` [Example 5.2] as the compound, how does the IC50 read?
Its IC50 is 74 nM.

For `C[N+]1(C)CCC(NC(=O)N2CCC(CCc3ccccc3)(CNC(N)=NC(=O)c3nc(Cl)c(N)nc3N)CC2)CC1` [Example 5.5], which IC50 is on record?
Its IC50 is 52 nM.

`N/C(=N\C(=O)c1nc(Cl)c(N)nc1N)NCC1(CCc2ccccc2)CCN(C(=O)NCCCCCCNC(=O)N2CCC(CCc3ccccc3)(CN/C(N)=N/C(=O)c3nc(Cl)c(N)nc3N)CC2)CC1` [Example 6.1] was tested. Which IC50 did it give?
Its IC50 is 97 nM.

With `COC(=O)CCC(=O)N1CCC(CCc2ccccc2)(CN/C(N)=N/C(=O)c2nc(Br)c(N)nc2N)CC1` [Example 10, 4-{4-[N′-(3,5-Diamino-6-bromo-pyrazine-2-carbonyl)-guanidinomethyl]-4-phenethyl-piperidin-1-yl}-4-oxo-butyric acid methyl ester] as the compound, how does the IC50 read?
The IC50 was 32 nM.

For `N/C(=N\C(=O)c1nc(Br)c(N)nc1N)NCC1(CCc2ccccc2)CCN(C(=O)CCC(=O)O)CC1` [Example 11, 4-{4-[N′-(3,5-Diamino-6-bromo-pyrazine-2-carbonyl)-guanidinomethyl]-4-phenethyl-piperidin-1-yl}-4-oxo-butyric acid], which IC50 is on record?
Its IC50 is 502 nM.
